In publication PMC5608352, “Formyl peptide derived lipopeptides disclose differences between the receptors in mouse and men and call the pepducin concept in question” (PLoS ONE, 2017):
Entries after “also recorded” stand apart in the source; their conditions may differ. Residues, ends and D or L forms follow the SMILES beside them. *: point of attachment. Palmitoyl = CCCCCCCCCCCCCCCC(=O)*

Experiments:
Format in all cases: cell-based
mouse neutrophils = biological target: T1, mouse neutrophils (Mus musculus, UniProt O88536); test: Direct activation: superoxide release (isoluminol/HRP chemiluminescence), WT mouse bone marrow neutrophils; conditions: WT mouse (C57BL/6) bone marrow neutrophils, TNF-α primed, 5 x 10^4 cells, 37°C, isoluminol/HRP CL, peak activity; pepducin 1 μM in figures
T1 sequence (O88536 1-351): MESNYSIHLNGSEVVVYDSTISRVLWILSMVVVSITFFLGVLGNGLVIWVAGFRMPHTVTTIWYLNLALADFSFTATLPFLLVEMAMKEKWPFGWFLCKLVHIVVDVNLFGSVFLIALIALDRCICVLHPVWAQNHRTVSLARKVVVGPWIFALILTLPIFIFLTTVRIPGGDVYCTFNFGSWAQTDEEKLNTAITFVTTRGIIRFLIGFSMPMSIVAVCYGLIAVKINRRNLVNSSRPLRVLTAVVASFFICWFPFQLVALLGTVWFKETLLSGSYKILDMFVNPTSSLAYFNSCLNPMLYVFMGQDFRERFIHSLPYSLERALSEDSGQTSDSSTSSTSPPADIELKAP
Text: (§1) Mice (8–12 weeks of age) were killed by cervical dislocation, the femurs and tibias were removed and freed of soft tissue attachments, and the extreme distal tip of each extremity was cut off. KRG without Ca^2+ and Mg^2+ (KRG-) was forced through the bone by using a 1-mL syringe with a 27-gauge needle. After dispersing cell clumps and removing the debris, the bone marrow granulocytes were isolated according to an earlier described procedure with some modifications. Briefly, a cell suspension in 2 mL of KRG- was laid on top of a three-layer Percoll gradient (1.095, 1.085, and 1.070 g/mL). The density of each Percoll solution was verified using density marker beads. After centrifugation at 500 × g for 30 min at 4°C in a swinging bucket rotor, the lowest band (1.085/1.095 g/mL interface) was collected as the neutrophil fraction. After washing with KRG-, remaining red blood cells were eliminated by hypotonic lysis. After a final wash with KRG-, the cells were resuspended in KRG. The cell number and population of bone marrow cells were determined by flow cytometry based on forward scatter (size) and side scatter (density) localization.
NADPH-oxidase activity was determined using an isoluminol and HRP-enhanced chemiluminescence (CL) system that allow for the determination of superoxide production. The CL activity was measured in a six-channel Biolumat LB 9505 apparatus (Berthold Co., Wildbad, Germany), using disposable 4-mL polypropylene tubes with 1 mL reaction mixture. The tubes contained 4 U HRP and 10 μg/mL isoluminol together with the cells that were equilibrated in the Biolumat for 5 min at 37°C, after which the stimulus solution (100 μL) was added. The light emission was recorded continuously over time and presented as superoxide production (in arbitrary light units, cpm x10^-6) as a function of time (min). The activity before stimulus addition was recorded as basal line and this activity was not changed in vehicle control samples. Since the FPR/Fpr-mediated superoxide production with respect to the onset and decline are very similar, the peak activities were used to compare the responses induced.
Naïve bone marrow cells produce very low levels of superoxide upon stimulation and to increase this production the cells were routinely primed for one hour at RT followed by TNF-α (10 ng/mL, final concentration) priming for a period of 20 min at 37°C [10]. The cells were then kept on ice until further analysis, as described above. The reason for choosing the chemiluminescence based NADPH-oxidase assay system was that very few cells are required, allowing us to monitor and quantify receptor-mediated events with the limited number of mouse bone marrow neutrophils available.
Data analysis was performed using Graph Pad Prism 7.0. The EC50/IC50 values were determined from experiments in which the activities were normalized to the response induced by maximal response or induced by agonist in the absence of inhibitor. The statistical analysis was performed on raw data using Student’s t-test when two groups were compared or one-way ANOVA with Dunnett’s multiple comparisons test in comparison to the control response when three groups were compared. * p ≤ 0.05 was considered significant.

FPR1 = test: Inhibition of fMLF-induced superoxide release, human neutrophils; conditions: pepducin 1 μM; fMLF 50 nM
Text: Human peripheral blood neutrophils were isolated from buffy coats from healthy blood donors using dextran sedimentation and Ficoll-Paque gradient centrifugation as described. The remaining erythrocytes were disrupted by hypotonic lysis and the neutrophils were washed twice, suspended in KRG and, stored on melting ice until use. This isolation process permits cells to be purified with minimal granule mobilization. The buffy coats were obtained from the blood bank at Sahlgrenska University Hospital. Ethics approval was not needed since the buffy coats were provided anonymously and could not be traced back to a specific individual. This is in line with Swedish legislation section code 4§ 3p SFS 2003:460 (Lag om etikprövning av forskning som avser människor).
(§2) NADPH-oxidase activity was determined using an isoluminol and HRP-enhanced chemiluminescence (CL) system that allow for the determination of superoxide production. The CL activity was measured in a six-channel Biolumat LB 9505 apparatus (Berthold Co., Wildbad, Germany), using disposable 4-mL polypropylene tubes with 1 mL reaction mixture. […] The light emission was recorded continuously over time and presented as superoxide production (in arbitrary light units, cpm x10^-6) as a function of time (min). The activity before stimulus addition was recorded as basal line and this activity was not changed in vehicle control samples. […]

Fpr2 [1] = biological target: T2, Fpr2 (Mus musculus, UniProt O88536); test: Inhibition of F1Pal16-induced superoxide release, WT mouse neutrophils; conditions: mF2Pal16 250 nM, 5 min pre-incubation, F1Pal16 500 nM, one of three experiments
T2 construct: WT mouse neutrophils (5 x 10^4 cells) were pre-incubated without (solid line) or with mF2Pal16; endogenous in cells; host or cells: bone marrow neutrophils of C57BL/6 wild-type mice, TNF-alpha primed
T2 sequence (O88536 1-351): T1 sequence (O88536 1-351)
Text: as §1, with “After centrifugation at 500 × g for 30 min at 4°C in a swinging bucket rotor, the lowest band (1.085/1.095 g/mL interface) was collected as the neutrophil fraction. After washing with KRG-, remaining red blood cells were eliminated by hypotonic lysis. After a final wash with KRG-, the cells were resuspended in KRG.” left out
as §2, with “(min).” for “(min). The activity before stimulus addition was recorded as basal line and this activity was not changed in vehicle control samples.”

Fpr2 [2] = biological target: T2, Fpr2; test: Receptor preference in mouse neutrophils (Fpr2 versus Fpr1); conditions: conclusion from superoxide release, Fpr2^-/- cells, desensitization and inhibitors
Text: C57BL/6 wild-type mice were purchased from Charles River Laboratories and Fpr2^−/− mice generated as described previously, were generously provided by Dr Ji Ming Wang, Frederick National Laboratory for Cancer Research, USA. Mice were kept under standard temperature and light conditions and fed laboratory chow and water ad libitum, at the Department of Rheumatology and Inflammation Research, University of Gothenburg. Sex matched WT and Fpr2^-/- animals (age 8–10 weeks) were used to isolated bone marrow derived neutrophils. The studies performed were approved by the Ethical Committee for Animal Experimentation, Göteborg, Sweden.
Mice (8–12 weeks of age) were killed by cervical dislocation, the femurs and tibias were removed and freed of soft tissue attachments, and the extreme distal tip of each extremity was cut off. […] The cell number and population of bone marrow cells were determined by flow cytometry based on forward scatter (size) and side scatter (density) localization.
NADPH-oxidase activity was determined using an isoluminol and HRP-enhanced chemiluminescence (CL) system that allow for the determination of superoxide production. The CL activity was measured in a six-channel Biolumat LB 9505 apparatus (Berthold Co., Wildbad, Germany), using disposable 4-mL polypropylene tubes with 1 mL reaction mixture. […]

## CCCCCCCCCCCCCCCC(=O)N[C@@H](CCCCN)C(=O)N[C@H](C(=O)N[C@@H](CC(N)=O)C(=O)N[C@@H](CCCNC(=N)N)C(=O)N[C@@H](CCCNC(=N)N)C(=O)N[C@@H](CC(N)=O)C(=O)N[C@@H](CC(C)C)C(=O)N[C@H](C(=O)N[C@@H](CC(N)=O)C(=O)N[C@@H](CO)C(=O)N[C@@H](CO)C(=O)N[C@@H](CCCNC(=N)N)C(=O)N1CCC[C@H]1C(=O)N[C@@H](CC(C)C)C(=O)N[C@@H](CCCNC(=N)N)C(=O)N[C@H](C(=O)O)C(C)C)C(C)C)[C@@H](C)CC [mF2Pal16] (Palmitoyl-KINRRNLVNSSRPLRV-OH; C-terminus assumed)
Mouse neutrophils
  superoxide release / activation of WT mouse neutrophils: No activation of mouse neutrophils
FPR1
  effect on fMLF response, human neutrophils: lack of inhibitory effect
Fpr2 [1]
  effect of mF2Pal16 on F1Pal16 response, WT mouse neutrophils: inhibits the activity of F1Pal16 in mouse neutrophils
Fpr2 [1]; listed as mF2pal16
  effect of mF2Pal16 on F1Pal16 response, WT mouse neutrophils: the response was sensitive to the pepducin inhibitor mF2pal16
Fpr2 [2]
  receptor preference / modulation of Fpr2 (versus Fpr1) in mouse neutrophils: inhibits the activity of Fpr2 in mouse neutrophils; also recorded: potent and selective inhibitor for Fpr2/FPR2; also recorded: targets this receptor
